pIC50: −log10 of the molar value. Like-named read-outs stand apart in the source and are kept apart here.

What is called pIC50 is the negative decadic logarithm of the IC50, by convention in mol/L. The term Dmax denotes the largest share of the target that was removed. For orientation: DC50 means the concentration at which degradation of the target reaches its halfway point.

In one experiment the test system is MCF-7 cells. Put plainly: CellTiter-Glo (CTG) cell proliferation assay in MCF-7 cells. The class given is cell-based. The settings on record: Homo sapiens, MCF7, 144 h, MCF-7 cell proliferation, Day 6. An excerpt: CellTiter-Glo® (CTG) Assays in MCF-7 and T47D Cell Lines.
In vitro Assay: MCF-7 and T47D CTG assay
A general note: In ATP-based viability assays light output follows the ATP content of the culture.

The next experiment concerns the target ER in MCF-7 cells (Homo sapiens (Human), UniProt P03372). Description: In-cell Western (ICW) ER degradation assay in MCF-7 cells. Format: cell-based. Particulars: for DC50: MCF-7, ER degradation, read-out: MCF7 DC50.
The mark [1] stands for this setting: MCF7, read-out: MCF7 Dmax, MCF-7, maximal ER degradation, 16 hrs treatment.
The mark [2] stands for this setting: MCF7, MCF-7, maximal ER degradation, 16 hrs treatment, read-out: MCF7 Dmax.

Sequence of ER in MCF-7 cells (P03372 whole entry): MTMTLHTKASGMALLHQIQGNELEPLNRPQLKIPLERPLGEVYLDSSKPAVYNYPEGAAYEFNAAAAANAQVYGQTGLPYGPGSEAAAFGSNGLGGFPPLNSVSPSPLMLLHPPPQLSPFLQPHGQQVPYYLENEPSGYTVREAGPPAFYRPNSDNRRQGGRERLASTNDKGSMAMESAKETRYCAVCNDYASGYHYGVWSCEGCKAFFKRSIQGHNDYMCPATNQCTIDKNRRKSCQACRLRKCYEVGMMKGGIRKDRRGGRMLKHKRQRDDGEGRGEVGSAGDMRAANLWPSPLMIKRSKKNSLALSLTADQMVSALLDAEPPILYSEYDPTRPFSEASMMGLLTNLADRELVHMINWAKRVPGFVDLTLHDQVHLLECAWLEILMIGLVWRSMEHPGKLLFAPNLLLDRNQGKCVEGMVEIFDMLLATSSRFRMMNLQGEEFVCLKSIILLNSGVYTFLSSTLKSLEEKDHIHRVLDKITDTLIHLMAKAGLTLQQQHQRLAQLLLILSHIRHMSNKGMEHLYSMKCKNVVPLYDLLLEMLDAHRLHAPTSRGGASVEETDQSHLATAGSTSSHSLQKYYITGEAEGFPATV

For `COc1cc(N2CC3(CCC(CN4CCC5(CC4)COc4nc(C(=O)N[C@H]6CCC(=O)NC6=O)ccc45)CC3)C2)c(F)cc1[C@@H]1c2ccc(O)cc2CC[C@@H]1c1ccccc1` [Compound A179, N-((S)-2,6-dioxopiperidin-3-yl)-1′-((2-(2-fluoro-4-((1S,2S)-6-hydroxy-2-phenyl-1,2,3,4-tetrahydronaphthalen-1-yl)-5-methoxyphenyl)-2-azaspiro [3.5]nonan-7-yl)methyl)-2H-spiro[furo[2,3-b]pyridine-3,4′-piperidine]-6-carboxamide], the pIC50 with MCF-7 cells was less than 7.00. At ER in MCF-7 cells (setting [1]), the maximal degradation (Dmax) was greater than 75%. The DC50 on ER in MCF-7 cells (16 hrs treatment) is less than 1 nM.

In the case of `COc1cc(N2CCC(CCN3CCN4c5ccc6c(c5OC[C@H]4C3)CN([C@H]3CCC(=O)NC3=O)C6=O)CC2)c(F)cc1[C@@H]1c2ccc(O)cc2CC[C@@H]1c1ccccc1` [Compound A180, (S)-3-((R)-7-(2-(1-(2-fluoro-4-((1S,2S)-6-hydroxy-2-phenyl-1,2,3,4-tetrahydronaphthalen-1-yl)-5-methoxyphenyl)piper-idin-4-yl)ethyl)-1-oxo-1,3,5,5a, 6,7,8,9-octahydro-2H-pyrazino [1′,2′:4,5][1,4]oxazino[2,3-e]isoindol-2-yl)piperidine-2,6-dione], the negative-log IC50 (pIC50) in the experiment on MCF-7 cells was less than 7.00. Moreover, at ER in MCF-7 cells (setting [2]), the greatest degradation seen (Dmax) was greater than 75%. Moreover, the 50% degradation concentration (DC50) on ER in MCF-7 cells (16 hrs treatment) is less than 1 nM.

As to `O=C1CC[C@H](N2Cc3c(ccc4c3OCC43CCN(CC4CC5(CCN(c6ccc([C@@H]7c8ccc(O)cc8CC[C@@H]7c7ccccc7)cc6)CC5)C4)CC3)C2=O)C(=O)N1` [Compound A181, (S)-3-(1′-((7-(4-((1R,2S)-6-hydroxy-2-phenyl-1,2,3,4-tetra-hydronaphthalen-1-yl)phenyl)-7-azaspiro[3.5]nonan-2-yl)-methyl)-6-oxo-6,8-dihydro-2H, 7H-spiro[furo[2,3-e]isoindole-3,4′-piperidin]-7-yl)piperidine-2,6-dione], the pIC50 in the experiment with MCF-7 cells is less than 7.00. Moreover, on ER in MCF-7 cells (setting [1]), the maximal degradation (Dmax) was greater than 75%. In addition, the 50% degradation concentration (DC50) at ER in MCF-7 cells (16 hrs treatment) is less than 1 nM.

As for `COc1cc(N2CC3(CC(CN4CCC5(CC4)COc4c5ccc5c4CN([C@H]4CCC(=O)NC4=O)C5=O)C3)C2)c(F)cc1[C@@H]1c2ccc(O)cc2CC[C@@H]1c1ccccc1` [Compound A184, (S)-3-(1′-((2-(2-fluoro-4-((1S, 2S)-6-hydroxy-2-phenyl-1,2,3,4-tetrahydronaphthalen-1-yl)-5-methoxyphenyl)-2-aza-spiro[3.3]heptan-6-yl)methyl)-6-oxo-6,8-dihydro-2H,7H-spiro[furo[2,3-e]isoindole-3,4′-piperidin]-7-yl)piperidine-2,6-dione], in the experiment on MCF-7 cells, the pIC50 was less than 7.00. In addition, on ER in MCF-7 cells (setting [1]), the Dmax was 50 to 75%.

With `COc1cc(N2CC3(CC(CN4CCN5c6ccc7c(c6OC[C@H]5C4)CN([C@H]4CCC(=O)NC4=O)C7=O)C3)C2)c(F)cc1[C@@H]1c2ccc(O)cc2CC[C@@H]1c1ccccc1` [Compound A185, (S)-3-((R)-7-((2-(2-fluoro-4-((1S,2S)-6-hydroxy-2-phenyl-1,2,3,4-tetrahydronaphthalen-1-yl)-5-methoxyphenyl)-2-aza-spiro[3.3]heptan-6-yl)methyl)-1-oxo-1,3,5,5a,6,7,8,9-octa-hydro-2H-pyrazino[1′,2′:4,5] [1,4]oxazino[2,3-e]isoindol-2-yl)piperidine-2,6-dione], in the experiment on MCF-7 cells, the pIC50 is less than 7.00. In addition, the Dmax at ER in MCF-7 cells (setting [2]) is greater than 75%. Besides, on ER in MCF-7 cells (16 hrs treatment), the DC50 is less than 1 nM.

The compound `COc1cc(N2CCC(CCN3CCC4(CC3)COc3c4ccc4c3CN([C@H]3CCC(=O)NC3=O)C4=O)CC2)c(F)cc1[C@@H]1c2ccc(O)cc2CC[C@@H]1c1ccccc1` [Compound A187, (S)-3-(1′-(2-(1-(2-fluoro-4-((1S,2S)-6-hydroxy-2-phenyl-1,2,3,4-tetrahydronaphthalen-1-yl)-5-methoxyphenyl)piperidin-4-yl)ethyl)-6-oxo-6,8-dihydro-2H,7H-spiro[furo[2,3-e]iso-indole-3,4′-piperidin]-7-yl)-piperidine-2,6-dione] had a pIC50 with MCF-7 cells of 7.00 to 8.00. Further, the Dmax at ER in MCF-7 cells (setting [1]) is greater than 75%. Besides, the DC50 at ER in MCF-7 cells (16 hrs treatment) was less than 1 nM.

For the compound `COc1cc(N2CCC(CCN3CCN4c5cc6c(cc5OC[C@@H]4C3)C(=O)N([C@H]3CCC(=O)NC3=O)C6)CC2)c(F)cc1[C@@H]1c2ccc(O)cc2CC[C@@H]1c1ccccc1` [Compound A188, (S)-3-((S)-3-(2-(1-(2-fluoro-4-((1S,2S)-6-hydroxy-2-phenyl-1,2,3,4-tetrahydronaphthalen-1-yl)-5-methoxyphenyl)piper-idin-4-yl)ethyl)-8-oxo-1,2,3,4,4a,5,8,10-octahydro-9H-pyr-azino[1′,2′:4,5][1,4]oxazino [2,3-f]isoindol-9-yl)piperidine-2,6-dione], the pIC50 in the experiment on MCF-7 cells was 7.00 to 8.00. Also, the maximal degradation (Dmax) on ER in MCF-7 cells (setting [2]) was greater than 75%. Also, the 50% degradation concentration (DC50) on ER in MCF-7 cells (16 hrs treatment) is less than 1 nM.

On to `COc1cc(N2CCC(CCN3CCC4(CC3)COc3cc5c(cc34)CN([C@H]3CCC(=O)NC3=O)C5=O)CC2)c(F)cc1[C@@H]1c2ccc(O)cc2CC[C@@H]1c1ccccc1` [Compound A189, (S)-3-(1′-(2-(1-(2-fluoro-4-((1S,2S)-6-hydroxy-2-phenyl-1,2,3,4-tetrahydronaphthalen-1-yl)-5-methoxyphenyl)piper-idin-4-yl)ethyl)-7-oxo-5,7-dihydro-2H,6H-spiro[furo[2,3-f]isoindole-3,4′-piperidin]-6-yl)piperidine-2,6-dione], for which the negative-log IC50 (pIC50) in the experiment on MCF-7 cells is 7.00 to 8.00. In addition, the Dmax on ER in MCF-7 cells (setting [1]) was greater than 75%. The DC50 on ER in MCF-7 cells (16 hrs treatment) is less than 1 nM.

In turn, `COc1c([C@@H]2c3ccc(O)cc3CC[C@@H]2c2ccccc2)ccc(N2CCC(CN3CCC4(CC3)COc3cc5c(cc34)CN([C@H]3CCC(=O)NC3=O)C5=O)CC2)c1F` [Compound A191, (S)-3-(1′-((1-(2-fluoro-4-((1S, 2S)-6-hydroxy-2-phenyl-1,2,3,4-tetrahydronaphthalen-1-yl)-3-methoxyphenyl)piper-idin-4-yl)methyl)-7-oxo-5,7-dihydro-2H,6H-spiro[furo[2,3-f]isoindole-3,4′-piperidin]-6-yl)piperidine-2,6-dione] had a negative logarithm of the IC50 (pIC50) with MCF-7 cells of 7.00 to 8.00. For the same compound, at ER in MCF-7 cells (setting [1]), the maximal degradation (Dmax) lay within 50 to 75%. Besides, at ER in MCF-7 cells (16 hrs treatment), the half-maximal degradation concentration (DC50) is less than 1 nM.

Compound `COC1(CCN2CCN3c4ccc5c(c4OC[C@H]3C2)CN([C@H]2CCC(=O)NC2=O)C5=O)CCN(c2ccc([C@@H]3c4ccc(O)cc4CC[C@@H]3c3ccccc3)cc2)CC1` [Compound A192, (S)-3-((R)-7-(2-(1-(4-((1R,2S)-6-hydroxy-2-phenyl-1,2,3,4-tetrahydronaphthalen-1-yl)-phenyl)-4-methoxypiperidin-4-yl)cthyl)-1-oxo-1,3,5,5a,6,7,8,9-octahydro-2H-pyrazino[1′,2′: 4,5][1,4]oxazino[2,3-e]isoindol-2-yl)piperidine-2,6-dione] showed a negative-log IC50 (pIC50) with MCF-7 cells of less than 7.00. Further, on ER in MCF-7 cells (setting [2]), the greatest degradation seen (Dmax) is greater than 75%. In addition, the DC50 at ER in MCF-7 cells (16 hrs treatment) is less than 1 nM.

In the experiment with MCF-7 cells, `COC1(CCN2CCC3(CC2)COc2c3ccc3c2CN([C@H]2CCC(=O)NC2=O)C3=O)CCN(c2ccc([C@@H]3c4ccc(O)cc4CC[C@@H]3c3ccccc3)cc2)CC1` [Compound A193, (S)-3-(1′-(2-(1-(4-((1R,2S)-6-hydroxy-2-phenyl-1,2,3,4-tetra-hydronaphthalen-1-yl)phenyl)-4-methoxypiperidin-4-yl)-ethyl)-6-oxo-6,8-dihydro-2H, 7H-spiro[furo[2,3-e]isoindole-3,4′-piperidin]-7-yl)piperidine-2,6-dione] gave a pIC50 of 7.00 to 8.00. In addition, the maximal degradation (Dmax) at ER in MCF-7 cells (setting [1]) was greater than 75%. In addition, the DC50 at ER in MCF-7 cells (16 hrs treatment) is less than 1 nM.

`O=C1CC[C@H](N2Cc3cc4c(cc3C2=O)OC[C@@H]2CN(CC3CC5(CCN(c6cnc(C7c8ccc(O)cc8CCC7c7ccccc7)cn6)CC5)C3)CCN42)C(=O)N1` (stereo partly drawn) [Compound A194, (3S)-3-((4aS)-3-((7-(5-(6-hydroxy-2-phenyl-1,2,3,4-tetra-hydronaphthalen-1-yl)pyrazin-2-yl)-7-azaspiro[3.5]nonan-2-yl)methyl)-8-oxo-1,2,3,4,4a,5,8,10-octahydro-9H-pyrazino [1′,2′:4,5][1,4]oxazino[2,3-f]isoindol-9-yl)piperidine-2,6-dione] had a negative-log IC50 (pIC50) with MCF-7 cells of less than 7.00. Also, the greatest degradation seen (Dmax) at ER in MCF-7 cells (setting [2]) is greater than 75%. The 50% degradation concentration (DC50) at ER in MCF-7 cells (16 hrs treatment) was in the range of 1 to 10 nM.

In turn, `O=C1CC[C@H](N2Cc3c(ccc4c3OC[C@H]3CN(CC5CC6(CCN(c7cnc(C8c9ccc(O)cc9CCC8c8ccccc8)cn7)CC6)C5)CCN43)C2=O)C(=O)N1` (stereo partly drawn) [Compound A195, (3S)-3-((5aR)-7-((7-(5-(6-hydroxy-2-phenyl-1,2,3,4-tetra-hydronaphthalen-1-yl)pyrazin-2-yl)-7-azaspiro[3.5]nonan-2-yl)methyl)-1-oxo-1,3,5,5a,6,7,8,9-octahydro-2H-pyrazino [1′,2′:4,5][1,4]oxazino[2,3-e]isoindol-2-yl)piperidine-2,6-dione] gave a pIC50 in the experiment on MCF-7 cells of less than 7.00. The Dmax at ER in MCF-7 cells (setting [2]) is greater than 75%. Further, on ER in MCF-7 cells (16 hrs treatment), the DC50 was less than 1 nM.

For the compound `COc1c([C@@H]2c3ccc(O)cc3CC[C@@H]2c2ccccc2)ccc(N2CCC3(CC2)CC(CN2CCN4c5ccc6c(c5OC[C@H]4C2)CN([C@H]2CCC(=O)NC2=O)C6=O)C3)c1F` [Compound A196, (S)-3-((R)-7-((7-(2-fluoro-4-((1S,2S)-6-hydroxy-2-phenyl-1,2,3,4-tetrahydronaphthalen-1-yl)-3-methoxyphenyl)-7-aza-spiro[3.5]nonan-2-yl)methyl)-1-oxo-1,3,5,5a,6,7,8,9-octa-hydro-2H-pyrazino[1′,2′:4,5] [1,4]oxazino[2,3-e]isoindol-2-yl)piperidine-2,6-dione], in the experiment on MCF-7 cells, the pIC50 is greater than 8.00. In addition, the Dmax at ER in MCF-7 cells (setting [2]) is greater than 75%. For the same compound, the DC50 on ER in MCF-7 cells (16 hrs treatment) is less than 1 nM.
